Data on six compounds can be found in patent publication EP1214940B1, “Methods of enhancing the therapeutic activity of NSAIDs and compositions of zwitterionic phospholipids useful therein” (Board of Regents, The University of Texas System, priority 1995, dated 1996).

Read-outs that look alike come from different tables or passages of the source. Marks after values point to notes of the source that are not given here.

Data set [1] relates to rats. The class given is in vivo. The following applies: aspirin 90mg/kg daily intragastric over 2 weeks, (n) rats/group. Here is the method: Rats were treated with ASA over a two week period to investigate the chronic effects of NSAID exposure (in the presence and absence of phospholipids) on hematocrit, gastric mucosal hydrophobicity, and granuloma formation. […] The test solutions (saline, ASA and ASA/Phospholipon 90G complex) were intragastrically administered between 8AM - 9AM daily during the two week study period. In these chronic exposure experiments, ASA was complexed with an equimolar concentration of Phospholipon 90G (purified soya lecithin, prepared and obtained from Nattermann GmbH of Cologne, Germany) instead of DPPC. At the completion of the study period, blood was collected into a capillary tube for the determination of hematocrit and the stomach was excised for contact angle analysis.
Contact angle analysis was performed with the use of a goniometer on excised gastric mucosal tissue, that was lightly blotted and dried, as previously outlined (Hills et al., 1983; Goddard et al., 1987; Goddard et al., 1990). Briefly, this was accomplished by applying a droplet of water (~ 5µl) to the tissue surface, and employing the telescopic eyepiece of the goniometer to measure the maximal angle that is dissected at the triple point, where the solid/liquid/ and air interface meet.

Data set [2] relates to Foreign-Body Granuloma Formation. Kind of data set: Rat foreign-body granuloma formation (implanted cotton string), two-week daily treatment. The class given is in vivo, rats. Particulars: two weeks, (dry weight of string with adherent granuloma tissue - dry weight of string)/dry weight of string. The text has this: Sterile tared cotton string was surgically implanted (bilaterally) under the abdominal skin of ether anesthetized rats on day 1 of the study period, and then randomly placing rats in a group to be daily treated with saline, aspirin or the NSAID complexed with Phospholipon 90G over a two-week period.
At the completion of the study period the string with the adherent granuloma tissue was surgically dissected from the euthanized rats and dried in a vacuum for several days at room temperature, until a baseline dry weight was obtained. The difference between this value and the initial dry weight of the string prior to implantation divided by the latter value provided an estimate of the weight of granuloma tissue.

Data set [3] deals with rats. Put plainly: Rat fever model (Brewer's yeast), antipyretic activity by rectal temperature. The data set is classed as in vivo. Particulars: for enhancement in anti-pyretic activity of the NSAID/DPPC complex compared to the NSAID alone: sodium salts complexed with equimolar DPPC, first three hours after intragastric administration. Here is the method:
Similar antipyretic analyses were performed with the sodium salts of the following NSAIDs: diclofenac (10 mg/kg), indomethacin (10 mg/kg) and naproxen (30 mg/kg), alone and complexed with an equimolar concentration of DPPC. All test solutions were titrated to a pH of 4.5 prior to intragastric administration. Rectal temperatures were monitored in conscious, restrained rats at all indicated times.
The ability of NSAIDs (administered alone and complexed with DPPC) to reduce fever in rats was determined.

Data set [4] has as its system rats. Put plainly: Acute gastric lesions in rats after salicylate-based NSAID and 0.6 N HCl challenge. The class given is in vivo, male Sprague Dawley rats. Particulars: intragastrically administered in association with DPPC versus without; rats challenged with 0.6N HCl; FIG. 4A. As to the method: Ten minutes later, the rats were intragastrically challenged with 1 ml of 0.6 N HCI.
One of a number of NSAIDs was intragastrically administered to rats alone or preassociated with an equimolar concentration of DPPC or Phospholipon 90 G (purified soya lecithin, prepared by Nattermann GmbH of Cologne Germany) in several models of acute and chronic injury of the upper GI tract. Two contrasting animal models were employed to determine the ability of DPPC to protect against acute NSAID injury to the GI tract. For salicylate-based NSAIDs, which primarily induce stomach injury, gastric lesions were scored in fasted rats who were initially treated with aspirin or salicylate alone or complexed with DPPC and challenged 10 minutes later with a supra-physiological dose of HCl. For non-salicylate NSAIDs (indomethacin, diclofenac and naproxen) which predominantly induce injury to the mid-distal regions of the small intestine, the quantity of intraluminal blood was assessed in the distal half of the small intestine of rats who were pre- and post-treated with the Nitric Oxide synthetase inhibitor, L-NAME (N-nitro-L-arginine methyl ester).

The subject of data set [5] is Foreign-Body Granuloma Formation in Rats. Put plainly: Foreign-body granuloma formation in rats, low dose aspirin (9 mg/kg) alone or with phospholipid/neutral lipids. The data set is classed as in vivo. The following applies: aspirin 9 mg/kg intragastric twice a day, 5 doses, starting five days after implantation; (n); spread in next table row. The source says: Sterile tared string was surgically implanted. Five days later rats were intragastrically administered twice a day with either saline, ASA alone, or ASA lipid mixtures.

Data set [6] has as its system Platelet Aggregation. Kind of data set: Ristocetin platelet aggregation test. The data set is classed as cell-based.
Data set [7] is classed as physicochemical. Particulars: NSAID sodium salt 100mM, 25°C, neutral conditions, alone or sonicated with 0.5 mM DPPC or DPPG; the sodium-salicylate line is with DPPC; FIG. 3. As to the method:
The diffusion of aspirin (alone and complexed with phospholipid) from water into cyclohexane was used as a model to estimate the membrane permeability of the drug.
The sodium salt of ASA (also salicylate) was dissolved in 5 ml of water at a final concentration of 100mM (pH adjusted to 6.0) and gently stirred at 25°C. An equal volume of cyclohexane was layered over the aqueous solution and the entry of the NSAID into the organic phase was monitored fluorometrically over time. In order to determine the effect of phospholipid association on the lipid permeability of the NSAID, ASA (or salicylate) at the above concentration was sonicated in the presence of 0.5 mM phospholipid (DPPC or DPPG) in water (adjusted to a pH of 7), and its rate of diffusion into the cyclohexane phase was measured fluorometrically. […] This entire process could be completed in < 30 seconds.

For the compound `CC(=O)Oc1ccccc1C(=O)O` [ASA, acetyl-salicylic acid], in data set [1], the “Gastric Mucosal Hydrophobicity (degrees, Contact Angle)” value is on record as 15.8 ± 6.6^c(6) degrees. Besides, the Hematocrit in data set [1] is given as 47.8 ± 0.2^c(10). Also, the figures for the “Granuloma Formation” value in data set [2] (ASA 90 mg/kg) and in data set [2] (ASA 140 mg/kg) were 1.90 ± 0.10^b and 1.07 ± 0.09^b, respectively. The antipyretic activity result in data set [3] (ASA 4.5 mg/kg (subthreshold), alone or complexed with equimolar DPPC, FIG. 9) is given as “no antipyretic activity alone”; in data set [3] (ASA 9.0 mg/kg (subthreshold), intragastric, alone or with equimolar phospholipid, FIG. 6 (five hour period) and FIG. 8), “does not have significant antipyretic activity”; in data set [3] (aspirin alone at doses of < 10 mg/kg, 4 hour study period, FIG. 7) it was “failed to reduce the fever”. Also, the “antipyretic activity after antisecretory pre-treatment” value in data set [3] (aspirin 20 mg/kg (FIG. 22: 18 mg/kg) in conjunction with proton pump inhibitor omeprazole (Prilosec), IP 150 mg/kg two hours before) was “failed to reduce fever”; in data set [3] (aspirin 20 mg/kg (FIG. 23: 18 mg/kg) in conjunction with Ranitidine (Zantac), IP 2 mg/kg 1 hour before), “failed to reduce fever”. In addition, in data set [4], the “injurious potential to induce gastric lesions” value is given as “remarkably decreased”. For the same compound, in data set [5], the “Foreign-Body Granuloma Formation” value is 3.89(8). The activity at 10 µM is 100% in data set [6] (read-out: % Platelet Aggregation, High Ristocetin (1.5 mg/ml) Test, ASA 0.01mM, DPPC equimolar where added) and 65% in data set [6] (read-out: % Platelet Aggregation, Low Ristocetin (0.75) mg/ml Test, ASA 0.01mM, DPPC equimolar where added). Further, the activity at 100 µM in data set [6] (read-out: % Platelet Aggregation, High Ristocetin (1.5 mg/ml) Test, ASA 0.1 mM, DPPC equimolar where added) was 83%; in data set [6] (read-out: % Platelet Aggregation, Low Ristocetin (0.75) mg/ml Test, ASA 0.1mM, DPPC equimolar where added), 26%. Also, the activity at 1000 µM in data set [6] (read-out: % Platelet Aggregation, High Ristocetin (1.5 mg/ml) Test, ASA 1.0 mM, DPPC equimolar where added) was 95%; in data set [6] (read-out: % Platelet Aggregation, High Ristocetin (1.5 mg/ml) Test, ASA 1.0 mM, second study, DPPC equimolar where added) it was 100%; in data set [6] (read-out: % Platelet Aggregation, Low Ristocetin (0.75) mg/ml Test, ASA 1.0mM, second study, DPPC equimolar where added), 39%; in data set [6] (read-out: % Platelet Aggregation, Low Ristocetin (0.75) mg/ml Test, ASA 1.0mm, DPPC equimolar where added), 80%. Moreover, the “passive diffusion (flux) from water into cyclohexane” value in data set [7] is on record as “negligible”.
Take `CCCCCCCCCCCCCCCC(=O)OCC(COP(=O)([O-])OCC[N+](C)(C)C)OC(=O)CCCCCCCCCCCCCCC` (stereo not drawn) [DPPC, dipalmitoyl phosphatidylcholine]: the activity at 1000 µM came to 100% in data set [6] (High Ristocetin (1.5 mg/ml) Test, ASA 0.00, DPPC alone at 1 mM, read-out: % Platelet Aggregation) and 94% in data set [6] (Low Ristocetin (0.75) mg/ml Test, ASA 0.00, DPPC alone at 1 mM, read-out: % Platelet Aggregation).
As for `COc1ccc2cc([C@H](C)C(=O)O)ccc2c1` [naproxen, 2-(6-methoxy-2-naphthyl)-propinic acid], in data set [3] (naproxen 25 mg/kg dose with DPPC, FIG. 19), the “anti-pyretic activity with DPPC versus NSAID alone” value is reported as “ability of DPPC to enhance the anti-pyretic activity”. In addition, the “enhancement in anti-pyretic activity of the NSAID/DPPC complex compared to the NSAID alone” value in data set [3] is -0.30 °C.
With `O=C(O)Cc1ccccc1Nc1c(Cl)cccc1Cl` [diclofenac, 2-(2,6-dichlorophenylamino)-phenylacetic acid], the “anti-pyretic activity with DPPC versus NSAID alone” value in data set [3] (diclofenac 10 mg/kg with DPPC, FIG. 20) was “ability of DPPC to enhance the anti-pyretic activity”. The “enhancement in anti-pyretic activity of the NSAID/DPPC complex compared to the NSAID alone” value in data set [3] was -0.29 °C.
As for `COc1ccc2c(c1)c(CC(=O)O)c(C)n2C(=O)c1ccc(Cl)cc1` [indomethacin, acetic acid], the “anti-pyretic activity with DPPC versus NSAID alone” value in data set [3] (indomethacin 10 mg/kg with DPPC, FIG. 18) is listed as “ability of DPPC to enhance the anti-pyretic activity of ASA was seen”. Besides, in data set [3], the “enhancement in anti-pyretic activity of the NSAID/DPPC complex compared to the NSAID alone” value was -0.28 °C.
For the compound `O=C(O)c1ccccc1O` [salicylate, salicylic acid], in data set [3] (salicylic acid 70 mg/kg dose with DPPC, FIG. 21), the “anti-pyretic activity with DPPC versus NSAID alone” value is “ability of DPPC to enhance the anti-pyretic activity”. Moreover, the “injurious potential to induce gastric lesions” value in data set [4] is “remarkably decreased”.
